Source: patent publication US12037372B2, “Bioactive peptides derived from snakes” (Universiteit Leiden, priority 2018, dated 2024)

Key:
[1] = tested on: multidrug resistant strain Acinetobacter baumannii RUH875; experiment: Bactericidal activity of peptides (in vitro killing assay); format: cell-based; settings: 50% (v/v) human plasma, 2 hours
Procedure: (§1) Enterococcus faecium (LUH 15122), Staphylococcus aureus (LUH 14616), Klebsiella pneumoniae (LUH 15104), Acinetobacter baumannii (RUH 875), Pseudomonas aeruginosa (LUH 15103), Enterobacter cloacae (LUH 15114) and Escherichia coli (LUH 15117) were used. Prior to experimentation the bacteria were taken from a glycerol stock stored at −80° C. and cultured overnight on sheep blood agar plates at 37° C. On the day of experimentation the bacteria were cultured in tryptic soy broth (TSB; Oxoid) for 2.5 hours at 37° C. and 200 rpm to a mid-logarithmic phase. The bacterial suspension was washed in phosphate buffered saline (PBS; pH 7.4), centrifuged for 10 minutes at 3000 rpm, and resuspended in PBS to the desired concentration, as determined by measuring the absorbance at 600 nm.
(§2) As a control the bacteria were also incubated in PBS with either 50% plasma or 50% urine without peptide. The plate was incubated for 2 hours at 37° C. and 200 rpm. After incubation the number of viable bacteria was determined microbiologically by plating the samples and a 10-times dilution series in PBS on diagnostic sensitivity test agar plates (DST; Sigma). The DST plates were incubated overnight at 37° C. Results were expressed as lethal concentration 99.9, or LC99.9, which represents the lowest concentration of peptide that killed 99.9% of the bacteria within 2 hours of incubation.

human neutrophils = experiment: Neutrophil migration assay; format: cell-based; settings: 3.2 μM peptide
Procedure: Heparinized blood was collected from healthy human volunteers. Next, 10 ml of blood were mixed to 15 ml of PBS in a tube. Underneath the diluted blood, 10 ml of Ficoll (Pharmacy, LUMC) were added. The tube was spun at 1800 rpm for 20 minutes without brake. The supernatant was removed and 40 ml of erythrocyte lysis buffer (0.1 mM EDTA, 0.18 M NH4Cl, 10 mM KHCO3) were added to the pellet. This mixture was incubated at room temperature until erythrocyte lysis was evident. The tube was centrifuged at 1200 rpm for 10 minutes, the supernatant was discarded. The pellet was washed again with PBS the same way. The pellet was resuspended in RPMI 1640 medium and the cells were counted with a counting chamber. The cells were diluted to 2×10^6 cells/ml of RPMI 1640. The inserts with a 3.0 μm pore size in a 12-well plate (HTS transwell; Costar) were blocked with 400 μl of PBS with 0.1% w/v BSA for 10 minutes at room temperature after which the BSA solution was discarded. The 2×10^6 cells/ml suspension was diluted with RPMI to add 400 μl of a 2×10^5 cells/ml suspension to the inserts. […] In the lower compartment 1 ml of the chemoattractant was added. […] Results were expressed as the percentage of migrated neutrophils compared to the positive FMLP control, and corrected for the negative control.

[2] = tested on: MDR P. aeruginosa (LUH 15103); experiment: Bactericidal activity of peptides (in vitro killing assay); format: cell-based, Pseudomonas aeruginosa; settings: 2-hour treatment, 50% v/v human plasma, median (range)
Procedure: as §1, §2

[3] = tested on: MDR S. aureus (LUH 14616), MRSA; experiment: as above; format: cell-based, Staphylococcus aureus; settings: MDR S. aureus LUH 14616; 2-hour treatment; 50% v/v human plasma; lowest concentration killing ≥99.9%; median (range)
Procedure: as §1, §2

## KKFFRKVKKGVHRYFKKNKFYIAA [SP27-66]
[1]; Table 5
  LC99.9 (μM) A. baumannii: 1.6 µM

## RFKKFFRKVKKGVHRYFKKNKFYI [SP27-64]
[1]; Table 5
  LC99.9 (μM) A. baumannii: 0.8 µM

## KFFRKVKKGVHRYFKKNKFYIAAT [SP27-67]
[1]; Table 5
  LC99.9 (μM) A. baumannii: 3.2 µM

## RKVKKGVHRYFKKNKFYIAATIPY [SP27-70]
[1]; Table 5
  LC99.9 (μM) A. baumannii: 12.8 µM

## FKKFFRKVKKGVHRYFKKNKFYIA [SP27-65]
[1]; Table 5
  LC99.9 (μM) A. baumannii: 1.6 µM

## KVKKGVHRYFKKNKFYIAATIPYY [SP27-71]
[1]; Table 5
  LC99.9 (μM) A. baumannii: 12.8 µM

## LL-37
Human neutrophils
  migrated neutrophils: 5.6%

## FRKVKKGVHRYFKKNKFYIAATIP [SP27-69]
[1]; Table 5
  LC99.9 (μM) A. baumannii: 25.6 µM

## VKKGVHRYFKKNKFYIAATIPYYG [SP27-72]
[1]; Table 5
  LC99.9 (μM) A. baumannii: 25.6 µM

## FFRKVKKGVHRYFKKNKFYIAATI [SP27-68]
[1]; Table 5
  LC99.9 (μM) A. baumannii: 12.8 µM

## KRFKKFFRKVKKGVHRYFKKNKFY [SP27-63]
[1]; Table 5
  LC99.9 (μM) A. baumannii: 0.4 µM
[1]; Table 6
  LC99.9 (μM) A. baumannii: 0.4 µM

## KRFKKFFRKIKKGFRKIFKKTKIFIGGTIPI [SP15]
[2]
  LC99.9 (μM) MDR P. aeruginosa in 50% plasma: 0.8 µM
[3]
  LC99.9 (μM) MRSA in 50% plasma: 12.8 µM

## KRFKKFFRKLKKSVKKRVKKFFKKPRVIGVTIPF [SP11]
[2]
  LC99.9 (μM) MDR P. aeruginosa in 50% plasma: 0.4 µM
[3]
  LC99.9 (μM) MRSA in 50% plasma: 3.2 µM

## KRFAGFFQFVVGVSFRF [SP33]
[2]
  LC99.9 (μM) MDR P. aeruginosa in 50% plasma: >102.4 µM
[3]
  LC99.9 (μM) MRSA in 50% plasma: >102.4 µM

## KRVKRFKKFFKKVKKSVKKRLKKIFKKPMVIGVTIPF [SP2]
[2]
  LC99.9 (μM) MDR P. aeruginosa in 50% plasma: 0.4 µM
[3]
  LC99.9 (μM) MRSA in 50% plasma: 25.6 µM

## KRFKNFFKRVRDGIRDFFRKNHIVIGVNFRF [SP31]
[2]
  LC99.9 (μM) MDR P. aeruginosa in 50% plasma: 25.6 µM
[3]
  LC99.9 (μM) MRSA in 50% plasma: 102.4 µM

## KRFAGFFQFVIGVSFHF [SP21]
[2]
  LC99.9 (μM) MDR P. aeruginosa in 50% plasma: >102.4 µM
[3]
  LC99.9 (μM) MRSA in 50% plasma: >102.4 µM
